This passage reports inhibition results from patent US8349827B2, “Substituted dipyrido-pyrimido-diazepine and benzo-pyrido-pyrimido compounds” (ArQule, Inc., priority 2009, dated 2013).

Molecules are shown by their SMILES.

Assay [1] deals with ABL (Homo sapiens, UniProt P00519). The assay can be described thus: ABL Kinase Activity Assay (Elisa), ABL. In kind it is biochemical. Particulars: ATP 100 μM, read-out: Abl Enzymetic assay (Elisa) % inhibition. On the procedure:
(§1) ABL Kinase Activity Assay
(§2) The disclosed compounds were assayed for their ability to inhibit the activity of ABL kinase. Nunc Maxisorb plates were coated with streptavidin by overnight incubation with 100 μL per well of 1 μg/ml streptavidin in DPBS. Prior to the experiment, the plates were washed with TBST (3×200 μL) and blocked for at least 3 hours by adding 150 μL of 5% BSA/TBST. The plates were washed with TBST (3×200 μL/well) and left dry immediately before the capture step.
(§3) The disclosed test compounds and controls (Gleevec) were prepared using the following assay buffer@10× desired final concentration (50 mM Tris pH 7.0, 0.02 mg/ml BSA, 10 mM MgCl2, 0.1 mM Na3VO4, 1 mM EGTA, 0.01% NP-40, 1 mM DTT in 10% glycerol/water). In a reaction plate, 5 μl test article (or control) and 30 μl ABL or ABL T315I (0.089 nM final concentration, in the above buffer) were added rapidly. The plate was incubated for 20 minutes. To the reaction plate was added ATP (100 μM final concentration) and AblTide (128 nM final concentration) in a volume of 15 μl. The plate was incubated at room temperature for one hour.
(§4) From the reaction plate, 40 μl was transferred to the streptavidin coated plate. The capture plate was incubated at room temperature for 30 minutes, then washed 3× with TBST. To the capture plate was added 100 μL/well of cell signaling anti-phospho tyrosine at a dilution of 1:3000 in 2% BSA/TBST. The plate was incubated for two hours at room temperature then washed 3× with TBST. To the capture plate was added 100 μL/well of alkaline phosphatase tagged goat anti mouse antibody at a dilution of 1:4000 in 2% BSA/TBST. The plate was incubated for one hour at room temperature then washed 3× with TBST.
(§5) The fluorescent readout was initiated by the addition of 100 μl/well of Attophos reagent (6 mg/10 mL). The reading was done on the Perkin Elmer Envision system.

Assay [2] deals with NCI-H1299. Description: MTS assay, NCI-H1299 cells. The settings on record: Homo sapiens, 72 hours. In kind it is cell-based. On the procedure:
(§6) Cells were maintained at 37° C., 5% CO2 in DMEM media supplemented with 1% fetal bovine serum, penicillin/streptomycin and fungizone (Invitrogen). Cells were seeded into 96-well tissue culture plates at 3000 per well and cultured at 37° C. for 18 hours. Test compounds were dissolved and diluted to 300× in DMSO then diluted 1:40 in DMEM. Cells were incubated with test compounds for 72 hours followed by incubation with tetrazolium compound (3-(4,5-dimethylthiazol-2-yl)-5-(3-carboxymethoxyphenyl)-2-(4-sulfophenyl)-2H-tetrazolium, inner salt; MTS) and the electron coupling reagent, phenazine methosulfate (PMS) for 4 hours. […] The ability of compounds to inhibit cell growth in this assay is correlated with the reduction of dehydrogenase enzyme activity found in metabolically active cells. The measurement of the absorbance of the formazan was assessed using an ENVISION™ (Perkin Elmer) microplate reader at 492 nm. The calculated IC50 value is the concentration of the test compound that causes a 50% decrease in the absorbance.

Assay [3] addresses ABL T315I (Homo sapiens, UniProt P00519, T315I). Description: ABL Kinase Activity Assay (Elisa), ABL T315I. In kind it is biochemical. The settings on record: ATP 100 μM, read-out: Abl(T315I) Enzymetic assay (Elisa) % inhibition. On the procedure: as §1, §2, §3, §4, §5
Assay [4] has as its system KATO III. The assay can be described thus: MTS assay, KATO III cells. It counts as cell-based. Particulars: Homo sapiens, 72 hours. As to the method: as §6
For assay [5], the system named is MDA-MB-231. Description: MTS assay, MDA-MB-231 cells. It counts as cell-based. Particulars: Homo sapiens, 72 hours. On the procedure: as §6
(Tetrazolium dyes change colour on reduction, which living cells bring about.)

In assay [6] the test system is DLD-1. Description: MTS assay, DLD-1 cells. Particulars: Homo sapiens, 72 hours. In kind it is cell-based. On the procedure:
as §6

Assay [7] has as its system PACA-2. Description: MTS assay, PACA-2 cells. It counts as cell-based. Particulars: 72 hours. On the procedure:
as §6

With `Cc1cnc(CNc2ncc3c(n2)-c2cccnc2Nc2cnccc2-3)cn1` [Example 6, N-[(5-methylpyrazin-2-yl)methyl]-9H-dipyrido[2,3-b:4′,3′-f]pyrimido[4,5-d]azepin-2-amine], the inhibition at 10 µM in assay [1], in assay [2], in assay [3] and in assay [4] was below 50% throughout.
On to `Fc1ccc(CNc2ncc3c(n2)-c2cccnc2Nc2cnccc2-3)cc1Cl` [Example 9, N-(3-chloro-4-fluorobenzyl)-9H-dipyrido[2,3-b:4′,3′-f]pyrimido[4,5-d]azepin-2-amine], for which the inhibition (in general, the drop in the measured response relative to a control, in per cent) at 10 µM in assay [1] is 80 to 100%; in assay [5], below 50%; in assay [6], 50 to 79%; in assay [2], below 50%; in assay [7], below 50%; in assay [3], 80 to 100%. In addition, in assay [4], the inhibition at 10 µM was in the range of 50 to 79%.
Take `c1ccc(CNc2ncc3c(n2)-c2cccnc2Nc2cnccc2-3)cc1` [Example 12, N-benzyl-9H-dipyrido[2,3-b:4′,3′-f]pyrimido[4,5-d]azepin-2-amine]: the inhibition at 10 µM was 80 to 100% in assay [1]; below 50% in assay [5]; below 50% in assay [6]; below 50% in assay [2]; 80 to 100% in assay [3]; below 50% in assay [4].
Take `Cc1ccc(CCNc2ncc3c(n2)-c2cccnc2Nc2cnccc2-3)cc1` [Example 16, N-[2-(4-methylphenyl)ethyl]-9H-dipyrido[2,3-b:4′,3′-f]pyrimido[4,5-d]azepin-2-amine]: the inhibition at 10 µM was 80 to 100% in assay [1]; below 50% in assay [5]; below 50% in assay [6]; below 50% in assay [2]; below 50% in assay [7]; 80 to 100% in assay [3]. Besides, the inhibition at 10 µM in assay [4] is 50 to 79%.
As for `Fc1ccc(CCNc2ncc3c(n2)-c2cccnc2Nc2cnccc2-3)cc1` [Example 19, N-[2-(4-fluorophenyl)ethyl]-9H-dipyrido[2,3-b:4′,3′-f]pyrimido[4,5-d]azepin-2-amine], the inhibition at 10 µM was 80 to 100% in assay [1]; below 50% in assay [5]; below 50% in assay [6]; below 50% in assay [2]; 80 to 100% in assay [3]; below 50% in assay [4].
As for `Fc1ccccc1CNc1ncc2c(n1)-c1cccnc1Nc1cnccc1-2` [Example 20, N-(2-fluorobenzyl)-9H-dipyrido[2,3-b:4′,3′-f]pyrimido[4,5-d]azepin-2-amine], the inhibition at 10 µM in assay [1] is 80 to 100%; in assay [5] it was below 50%; in assay [6], below 50%; in assay [2], below 50%; in assay [7], below 50%; in assay [3] it was 80 to 100%. Moreover, in assay [4], the inhibition at 10 µM is below 50%.
As to `c1ccc(CCNc2ncc3c(n2)-c2cccnc2Nc2cnccc2-3)cc1` [Example 28, N-(2-phenylethyl)-9H-dipyrido[2,3-b:4′,3′-f]pyrimido[4,5-d]azepin-2-amine], the inhibition at 10 µM in assay [1] was 80 to 100%; in assay [5] it was below 50%; in assay [6], below 50%; in assay [3], 80 to 100%; in assay [4], 50 to 79%.
Regarding `Clc1cccc(CCNc2ncc3c(n2)-c2cccnc2Nc2cnccc2-3)c1` [Example 29, N-[2-(3-chlorophenyl)ethyl]-9H-dipyrido[2,3-b:4′,3′-f]pyrimido[4,5-d]azepin-2-amine], the inhibition at 10 µM in assay [1] is 80 to 100%; in assay [5], below 50%; in assay [6], below 50%; in assay [7], below 50%; in assay [3], 80 to 100%; in assay [4] it was 80 to 100%.
Regarding `FC(F)(F)c1cccc(CNc2ncc3c(n2)-c2cccnc2Nc2cnccc2-3)c1` [Example 30, N-[3-(trifluoromethyl)benzyl]-9H-dipyrido[2,3-b:4′,3′-f]pyrimido[4,5-d]azepin-2-amine], the inhibition at 10 µM is 80 to 100% in assay [1]; 50 to 79% in assay [6]; below 50% in assay [2]; below 50% in assay [7]; 80 to 100% in assay [3]; 80 to 100% in assay [4].
For the compound `Clc1ccc(CCNc2ncc3c(n2)-c2cccnc2Nc2cnccc2-3)cc1` [Example 31, N-[2-(4-chlorophenyl)ethyl]-9H-dipyrido[2,3-b:4′,3′-f]pyrimido[4,5-d]azepin-2-amine], the inhibition at 10 µM was 80 to 100% in assay [1]; 50 to 79% in assay [6]; below 50% in assay [2]; below 50% in assay [7]; 80 to 100% in assay [3]; 80 to 100% in assay [4].
Turning to `COc1cccc(CNc2ncc3c(n2)-c2cccnc2Nc2cnccc2-3)c1` [Example 32, N-(3-methoxybenzyl)-9H-dipyrido[2,3-b:4′,3′-f]pyrimido[4,5-d]azepin-2-amine], the inhibition at 10 µM in assay [1] was 80 to 100%; in assay [5] it was below 50%; in assay [6], 50 to 79%; in assay [2], 50 to 79%; in assay [7], below 50%; in assay [3], 80 to 100%. Moreover, the inhibition at 10 µM in assay [4] is below 50%.
Regarding `COc1cc(CNc2ncc3c(n2)-c2cccnc2Nc2cnccc2-3)cc(OC)c1` [Example 36, N-(3,5-dimethoxybenzyl)-9H-dipyrido[2,3-b:4′,3′-f]pyrimido[4,5-d]azepin-2-amine], the inhibition at 10 µM was 50 to 79% in assay [1]; below 50% in assay [6]; below 50% in assay [2]; below 50% in assay [7]; 80 to 100% in assay [3]; below 50% in assay [4].
As for `c1cnc2c(c1)-c1nc(NCCCN3CCCC3)ncc1-c1ccncc1N2` [Example 37, N-(3-pyrrolidin-1-ylpropyl)-9H-dipyrido[2,3-b:4′,3′-f]pyrimido[4,5-d]azepin-2-amine], the inhibition at 10 µM in assay [1] is 50 to 79%; in assay [5], below 50%; in assay [2] it was below 50%; in assay [7] it was below 50%.
In the case of `Fc1ccccc1CCNc1ncc2c(n1)-c1cccnc1Nc1cnccc1-2` [Example 43, N-[2-(2-fluorophenyl)ethyl]-9H-dipyrido[2,3-b:4′,3′-f]pyrimido[4,5-d]azepin-2-amine], the inhibition at 10 µM was 80 to 100% in assay [1]; below 50% in assay [6]; below 50% in assay [2]; below 50% in assay [7]; 80 to 100% in assay [3]; 50 to 79% in assay [4].
For the compound `CCN(CC)CCCNc1ncc2c(n1)-c1cccnc1Nc1cnccc1-2` [Example 44, N′-9H-dipyrido[2,3-b:4′,3′-f]pyrimido[4,5-d]azepin-2-yl-N,N-diethylpropane-1,3-diamine], the inhibition at 10 µM in assay [1] is below 50%; in assay [5] it was below 50%; in assay [6], below 50%; in assay [2], below 50%; in assay [7], below 50%; in assay [4], 80 to 100%.
`OCCc1cccc(Nc2ncc3c(n2)-c2cccnc2Nc2ccccc2-3)c1` [Example 67, 2-[3-(9H-pyrido[2,3-b]pyrimido[4,5-d][1]benzazepin-2-ylamino)phenyl]ethanol]: the inhibition at 10 µM in assay [5] was below 50%; in assay [6] it was below 50%; in assay [2] it was 50 to 79%; in assay [7], 80 to 100%; in assay [4] it was 50 to 79%.
